Data as given in patent US20260015354A1, “Solid State Forms of Ensifentrine” (Cipla Limited, priority 2022, published 2026).
≈ marks a conversion by molar mass, not a printed value.

Assay: Comparative solubility of crystalline forms of Ensifentrine at pH 3
Type: physicochemical
Details: for solubility compared to Form I: comparison in words
From the text: The solubility of Form C1 and Form I disclosed in U.S. Pat. No. 9,062,047 at pH 3 were compared.
The solubility of Form C3 and Form I disclosed in U.S. Pat. No. 9,062,047 at pH 3 was compared.

Row | SMILES | solubility compared to Form I | solubility (time 15 min) | solubility (time 30 min) | solubility (time 60 min) | solubility (time 120 min) | solubility (time 240 min)
1 | COc1cc2c(cc1OC)-c1c/c(=N\c3c(C)cc(C)cc3C)n(CCNC(N)=O)c(=O)n1CC2 [Form C1] | better solubility compared to Form I |  |  |  |  | 
2 | COc1cc2c(cc1OC)-c1c/c(=N\c3c(C)cc(C)cc3C)n(CCNC(N)=O)c(=O)n1CC2 [Form C3] | better solubility compared to Form I | 2110 µg/mL (≈ 4.42 mM) | 1960 µg/mL (≈ 4.1 mM) | 2000 µg/mL (≈ 4.19 mM) | 2050 µg/mL (≈ 4.29 mM) | 2130 µg/mL (≈ 4.46 mM)
3 | COc1cc2c(cc1OC)-c1c/c(=N\c3c(C)cc(C)cc3C)n(CCNC(N)=O)c(=O)n1CC2 [Form I, reference compound] |  | 1380 µg/mL (≈ 2.89 mM) | 1390 µg/mL (≈ 2.91 mM) | 1310 µg/mL (≈ 2.74 mM) | 1350 µg/mL (≈ 2.83 mM) | 1390 µg/mL (≈ 2.91 mM)
